Measured values published in ChEMBL document CHEMBL1125598, “HIV protease: a novel chemotherapeutic target for AIDS” (J Med Chem, 1991).
“And” between values parts separate entries of the source, which are not always exact repeats. Identical values can stand only once. Peptide text beside a SMILES is read from it.

How the values were obtained:
[1] = target: T1, Human immunodeficiency virus type 1 protease (Human immunodeficiency virus 1, UniProt Q72874); experiment: The compound was tested for its affinity against HIV-1 protease
[2] = target: T1, Human immunodeficiency virus type 1 protease; experiment: Binding affinity for HIV-1 protease
[3] = test system: H9; experiment: Inhibitory activity against HIV-1 mB in H9 cells; Range 20-150 nM; assay type: functional, cell-based; details: Homo sapiens
[4] = Toxicity against HIV-1 mB in H9 cells; Range 10 to >100 uM; assay type: cell-based; details: human, read-out: TC50 (the source's name)
[5] = test system: MT4; experiment: Inhibitory activity against HIV-1 mB in MT-4 cells; Range 20-150 nM; assay type: functional, cell-based; details: Homo sapiens
[6] = Toxicity against HIV-1 mB in MT-4 cells; Range 10 to >100 uM; assay type: cell-based, MT4; details: human, read-out: TC50 (the source's name)
[7] = test system: Human immunodeficiency virus 1; experiment: Concentration for prevention of spread of HIV infection; range 25-100 uM; assay type: functional, organism-based
[8] = test system: C8166; experiment: Antiviral activity in HIV-1RF infected C8166 cells; assay type: functional, cell-based; details: Homo sapiens
[9] = test system: JM1; experiment: Antiviral activity in HIV-1GB8 infected JM cells; assay type: functional, cell-based; details: Homo sapiens
[10] = test system: H9; experiment: Inhibitory activity against HIV-1IIIb in H-9 cells using immunofluorescence; assay type: functional, Homo sapiens

SMILES | IC50 [1] | Ki [2] | other results
CC(C)(C)OC(=O)C1CCCN1C[C@@H](O)[C@H](Cc1ccccc1)NC(=O)[C@H](CC(N)=O)NC(=O)OCc1ccccc1 (stereo partly drawn) | 140 nM | – | –
CC[C@H](C)[C@H](NC(=O)C1CCCN1C[C@H](C)[C@H](Cc1ccccc1)NC(=O)[C@H](CC(N)=O)NC(=O)[C@H](CC(C)C)NC(=O)[C@H](CO)NC(C)=O)C(=O)N[C@H](C(=O)OC)C(C)C (stereo partly drawn) (HELM PEPTIDE1{[ac].S.L.N.[C[C@@H](CN1CCCC1C(=O)[*:2])[C@H](Cc1ccccc1)N[*:1]].I.V.[CO[*:1]]}$$$$V2.0) | – | 0.66 nM | –
CC[C@H](C)[C@H](NC(=O)[C@@H](C[C@H](O)[C@H](CC1CCCCC1)NC(=O)[C@H](C)NC(C)(C)C)C(C)C)C(=O)NCc1ccccn1 | – | 70 nM | –
CC(C)[C@H](NC(=O)OCc1ccccc1)C(=O)N[C@@H](Cc1ccccc1)[C@H](O)[C@H](O)[C@H](Cc1ccccc1)NC(=O)[C@@H](NC(=O)OCc1ccccc1)C(C)C | 0.2 nM and < 0.4 nM | – | IC50 [3]: 20 nM; CC50 [4]: 10000 nM; IC50 [5]: 20 nM; CC50 [6]: 10000 nM
CC(C)[C@H](NC(=O)[C@@H](NC(=O)[C@@H]1CCCN1C[C@H](Cc1ccccc1)NC(=O)[C@H](C)NC(=O)[C@H](C)NC(=O)[C@@H](N)CO)C(C)C)C(N)=O (HELM PEPTIDE1{S.A.A.[O=C([C@@H]1CCCN1C[C@H](Cc1ccccc1)N[*:1])[*:2]].V.V.[am]}$$$$V2.0) | 19000 nM | – | –
CC[C@H](C)[C@H](NC(=O)[C@@H](C[C@H](O)[C@H](CC(C)C)NC(=O)[C@H](Cc1c[nH]cn1)NC(=O)[C@H](Cc1ccccc1)NC(=O)[C@@H]1CCCN1C(=O)[C@H](Cc1c[nH]cn1)NC(=O)OC(C)(C)C)C(C)C)C(=O)N[C@@H](Cc1c[nH]cn1)C(=O)O (HELM PEPTIDE1{[CC(C)(C)OC(=O)[*:2]].H.P.F.H.[CC(C)C[C@H](N[*:1])[C@@H](O)C[C@H](C(=O)[*:2])C(C)C].I.H}$$$$V2.0) | – | 5 nM | –
COC(=O)[C@@H](NC(=O)[C@@H](NC(=O)C[C@H](O)[C@H](Cc1ccccc1)NC(=O)[C@H](C)NC(=O)[C@H](C)NC(=O)[C@@H](N)CO)C(C)C)C(C)C (HELM PEPTIDE1{S.A.A.[O=C(C[C@H](O)[C@H](Cc1ccccc1)N[*:1])[*:2]].V.V.[CO[*:1]]}$$$$V2.0) | – | 1200 nM | –
CC(C)[C@H](NC(=O)OCc1ccccc1)C(=O)N[C@@H](Cc1ccccc1)C(O)[C@H](Cc1ccccc1)NC(=O)[C@@H](NC(=O)OCc1ccccc1)C(C)C | 3 nM | – | –
CCCC[C@H](CN[C@H](CCCC)C(=O)N[C@@H](CCC(N)=O)C(=O)N[C@@H](CCCNC(=N)N)C(N)=O)NC(=O)[C@@H](NC(=O)[C@@H](NC(C)=O)[C@@H](C)O)[C@@H](C)CC | 780 nM | – | –
CC(C)C[C@H](NC(=O)[C@H](Cc1ccccc1)CP(=O)(O)[C@H](Cc1ccccc1)NC(=O)OC(C)(C)C)C(=O)N[C@@H](Cc1ccccc1)C(N)=O | 9 nM | – | –
CC(C)[C@H](NC(=O)[C@@H](NC(=O)C(Cc1ccccc1)CP(=O)(O)[C@@H](Cc1ccccc1)NC(=O)[C@@H](NC(=O)[C@@H](NC(=O)OC(C)(C)C)C(C)C)C(C)C)C(C)C)C(N)=O (stereo partly drawn) (HELM PEPTIDE1{[CC(C)(C)OC(=O)[*:2]].V.V.[O=C(C(Cc1ccccc1)CP(=O)(O)[C@@H](Cc1ccccc1)N[*:1])[*:2]].V.V.[am]}$$$$V2.0) | – | 0.04 nM | –
CC(C)[C@H](NC(=O)[C@@H](NC(=O)C1CCCN1CP(=O)(O)[C@@H](Cc1ccccc1)NC(=O)c1ccccc1)C(C)C)C(N)=O (stereo partly drawn) | – | 450 nM | –
COC(=O)[C@@H](NC(=O)[C@@H](NC(=O)CC[C@@H](O)[C@@H](Cc1ccccc1)NC(=O)[C@H](C)NC(=O)[C@H](C)N)C(C)C)C(C)C (HELM PEPTIDE1{A.A.[O=C(CC[C@@H](O)[C@@H](Cc1ccccc1)N[*:1])[*:2]].V.V.[CO[*:1]]}$$$$V2.0) | – | 18 nM | Concentration [7]: 100 µM
CC(C)[C@H](NC(=O)[C@@H](NC(=O)C(Cc1ccccc1)CP(=O)(O)[C@@H](Cc1ccccc1)NC(=O)c1ccccc1)C(C)C)C(N)=O (stereo partly drawn) | – | 0.6 nM | –
COC(=O)[C@@H](NC(=O)[C@@H](NC(=O)CCP(=O)(O)[C@@H](Cc1ccccc1)NC(=O)[C@H](C)NC(=O)[C@H](C)NC(=O)[C@@H](N)CO)C(C)C)C(C)C (HELM PEPTIDE1{S.A.A.[O=C(CCP(=O)(O)[C@@H](Cc1ccccc1)N[*:1])[*:2]].V.V.[CO[*:1]]}$$$$V2.0) | – | 4400 nM | –
CC(C)(C)NC(=O)C1CCCCN1C[C@@H](O)[C@H](Cc1ccccc1)NC(=O)[C@H](CC(N)=O)NC(=O)c1ccc2ccccc2n1 (stereo partly drawn) | 2 nM | – | –
CC(=O)N[C@@H](CO)C(=O)N[C@@H](CCC(N)=O)C(=O)N[C@@H](CC(N)=O)C(=O)N[C@@H](Cc1ccccc1)[C@@H](O)CC(=O)N[C@H](C(=O)N[C@H](C(N)=O)C(C)C)C(C)C (HELM PEPTIDE1{[ac].S.Q.N.[O=C(C[C@H](O)[C@H](Cc1ccccc1)N[*:1])[*:2]].V.V.[am]}$$$$V2.0) | – | 39000 nM | –
CC(=O)N[C@@H](Cc1ccccc1)C(O)[C@H](Cc1ccccc1)NC(C)=O | > 10000 nM | – | –
CC(C)(C)NC(=O)[C@H]1C[C@@H]2CCCC[C@@H]2CN1C[C@@H](O)[C@H](Cc1ccccc1)NC(=O)[C@H](CC(N)=O)NC(=O)c1ccc2ccccc2n1 | – | – | IC50 [8]: 2 nM; IC50 [9]: 2.5 nM
CC[C@H](C)[C@H](NC(=O)[C@H](C(C)C)[C@@H](O)[C@H](O)[C@H](CC1CCCCC1)NC(=O)[C@H](Cc1c[nH]cn1)NC(=O)COc1cccc2ccccc12)C(=O)NCc1ccccn1 | – | < 1 nM | –
CC[C@H](C)[C@H](NC(=O)[C@@H]1CCCN1C[C@H](Cc1ccccc1)NC(=O)[C@H](CC(N)=O)NC(=O)[C@H](CCC(N)=O)NC(=O)[C@H](CO)NC(=O)[C@@H](N)C(C)C)C(=O)N[C@H](C(=O)O)C(C)C (HELM PEPTIDE1{V.S.Q.N.[O=C([C@@H]1CCCN1C[C@H](Cc1ccccc1)N[*:1])[*:2]].I.V}$$$$V2.0) | 3.5 nM | – | –
CC(C)(C)OC(=O)N[C@@H](Cc1ccccc1)[C@@H](O)C[C@@H](Cc1ccccc1)C(=O)N[C@H]1c2ccccc2C[C@H]1O | – | – | IC100 [10]: 200 nM
